In brackets after ≈: the same amount, converted by molar mass. Structures can show the parent of a compound that is named as a salt. Where two headings read alike, the source gives them in different places.
Legend:
[1] = Neutral Red vitality test using J774.A1 cells; type: cell-based, murine; details: mouse; J774.A1 murine macrophage cells, 72 hours with substance; vitality reduced to 50% of untreated control
Protocol: (§1) Compatibility tests of the exemplary compounds were carried out using cultures of eukaryotic cells. Hepatocytes (HepG2) and murine macrophage cells (J774.A1) were used as indicator for organ-specific toxicity. The murine macrophage cell line used is a particularly sensitive indicator for toxic effects.
(§2) In each case 1.2×10^4 cells were incubated at 37° C. for 24 hours. Test substances were added at different concentrations, and the cells were incubated for another 72 hours. The cells were then treated with 50 μl of Neutral Red solution (Sigma, No. N 2889) for 2 hours, washed with PBS medium and denaturated using an ethanol/glacial acetic acid mixture.
(§3) The cultures were measured in an Elisa reader at 540 nm and 630 nm. The IC50 values were extrapolated and indicate at which concentration the vitality of the cells, measured by the uptake of Neutral Red, is reduced to 50%, compared to untreated control cells.

S. aureus 133 [2] = test: Determination of the minimum inhibitory concentration (MIC), liquid dilution test; type: cell-based; details: Staphylococcus aureus
Protocol: (§4) The MIC was determined using the liquid dilution test. Overnight cultures of the test germs (S. aureus 133) in Isosensitest bouillon were diluted 1:1000 with foetal calf serum (FCS) or Isosensitest bouillon and incubated with dilutions of the test substances (successive dilutions of 1:2).
The cultures were incubated at 37° C. for 18-24 hours. In each case the lowest concentration of substance at which no visible bacterial growth took place, was defined as MIC.

[3] = tested on: TAN 1057 A,B-resistant S. aureus 133; test: MIC test with TAN 1057 A,B-resistant isolates from stepwise selection; type: cell-based; details: Staphylococcus aureus
Protocol: as §4
Bacteria of the strain S. aureus 133 were incubated with different concentrations of TAN 1057 A,B for 24 hours. […] This process was repeated for several days, selecting step by step bacteria having increased resistance to TAN 1057 A,B. The MIC of highly resistant S. aureus 133 bacteria was >100 μg/ml (initial MIC: <0.1 μg/ml). The bacteria from this selection series, having an MIC of <0.1, 0.8, 25, 100 and >100 μg/ml, were used for tests. It is thus possible to identify TAN 1057 A,B derivatives having antibacterial activity against TAN 1057 A,B-resistant cells.
The S. aureus 133 isolates with medium and high resistance to TAN 1057 A,B were tested in comparison to the derivatives of the invention.

S. aureus 133 [4] = test: Test of antibacterial activity in vivo (infected mice, survival); details: mice infected i.p. with 1×10^6 S. aureus 133 in 5% mucine; intravenous administration 30 minutes after infection
Protocol: Mice were infected with 1×10^6 bacteria of the strain S. aureus 133 in 5% mucine (i.p.) and treated by intravenous administration of the test substances 30 minutes after the infection. Without treatment, all infected animals died. The therapeutic doses for TAN 1057 A,B and the compound of Example 4 at which all infected animals survived (=ED100) was 1 mg/kg for both substances.

[5] = Acute toxicity in mice (LD50); details: mouse, in vivo, ip, intraperitoneal administration, dose at which 50% of treated mice survive
Protocol: The acute toxicity of the substances was determined by determining the dose at which 50% of the treated mice survive (=LD50). Following intraperitoneal administration of the test substances, the LD50 for TAN 1057 A,B was 100 mg/kg. The LD50 for the compound of Example 4 was >400 mg/kg.

[6] = Vitality of HepG2 cells (Alamar Blue fluorescence); type: cell-based; details: human, HepG2 liver cells, HepG2, 40-48 hours, highest test concentration 10 μg/ml
Protocol: (§5) The vitality and functionality of human HepG2 liver cells were examined after treatment with exemplary compounds. In each case 2×10^4−1×10^5 cells were incubated in RPMI 1640 (Whittacker) with 10% heat-inactivated foetal calf serum (Gibco) at 37° C. for 40-48 hours. The incubation volume of 200 μl contained the test substances in concentrations of 10, 2 and 0.4 μg/ml.
The vitality was examined after addition of 20 μl Alamar Blue (Biosource, Art. No. DAL 1100) by measuring the fluorescence (excitation: 544 nm, emission: 590 nm).

[7] = tested on: α2-macroglobulin secretion of HepG2 cells; test: Functionality of HepG2 cells: secretion of α2-macroglobulin (ELISA); type: cell-based; details: human, HepG2 liver cells, HepG2, 40-48 hours, highest test concentration 10 μg/ml
Protocol: as §5
(§6) The functionality of the HepG2 cells was examined by measuring the secretion of apo B100 and α2-macroglobulin after treatment. To this end, the protein content of the culture supernatants was determined by ELISA after incubation for 40-48 hours. Apo B100 was bound using rabbit ahLDL (1 mg/ml) and quantified using peroxidase-conjugated monoclonal antibodies (ahLDL_POD), with addition of the substrate TMB/H2O2. The optical density was measured at 450 nm.
To determine α2-macroglobulin, the ELISA system from Biodesign (Art.No. H 45205M) was used. Quantification was likewise carried out using the substrate TMB/H2O2, and measuring the optical density at 450 nm.

[8] = tested on: apo B100 secretion of HepG2 cells; test: Functionality of HepG2 cells: secretion of apo B100 (ELISA); type: cell-based; details: human, HepG2 liver cells, HepG2, 40-48 hours, highest test concentration 10 μg/ml
Protocol: as §5, §6

J774.A1 cells = test: Neutral Red vitality test using J774.A1 cells; type: cell-based, murine; details: compatibility tests with eukaryotic cells: hepatocytes (HepG2) and murine macrophage cells (J774.A1)
Protocol: as §1, §2, §3

[9] = S. aureus 133, overnight culture diluted 1:1000 with foetal calf serum, 37° C., 18-24 hours, lowest concentration without visible growth, read-out: MIC in FCS (S.aureus; μg/ml)
[10] = read-out: MIC, isolate with medium resistance to TAN 1057 A,B

Structure (SMILES)	IC50 at 72 h [1] [mg/L]	MIC (S. aureus 133 [2]; [9]) [µg/mL]	further results
CN(C(=O)C[C@@H](N)CCCN)C1CNC(NC(N)=O)=NC1=O (stereo partly drawn) [Example 4, (3′S,5R,S)-5-[N-Methyl-N-(3′,6′-diaminohexanoyl)amino]-5,6-dihydro-2-ureido-4(1H)-pyrimidone Dihydrochloride]	25	0.4	MIC [3, 10]: 0.2 mg/L; ED100 (therapeutic dose at which all infected animals survived) (S. aureus 133 [4]): 1 mg/kg; LD50 [5]: > 400 mg/kg
NCCC[C@H](N)CC(=O)NC1CNC(NC(N)=O)=NC1=O (stereo partly drawn) [Example 14, (3′R,5R,S)-5-[N-(3′,6′-Diaminohexanoyl)amino]-5,6-dihydro-2-ureido-4(1H)-pyrimidone Dihydrochloride]	–	12.5	–
CN(C(=O)C[C@@]1(N)C[C@H]1CCNC(=N)N)C1CNC(NC(N)=O)=NC1=O (stereo partly drawn) [Example 3, 5-{N-Methyl-N-2′-[1-amino-2-(2-guanidinoethyl)cyclopropyl]acetamino}-5,6-dihydro-2-ureido-4(1H)-pyrimidone Dihydrochloride]	40	100	–
COC(=O)NCCC[C@H](N)CC(=O)N(C)C1CNC(NC(N)=O)=NC1=O.Cl (stereo partly drawn) [Example 16, (3′S,5R,S)-5-[N-Methyl-N-(3′-amino-6′-methoxycarbonylaminohexanoyl)-amino]-5,6-dihydro-2-ureido-4(1H)-pyrimidone Hydrochloride]	–	100	–
CCN(C(=O)C[C@@H](N)CCCNC(=N)N)C1CNC(NC(N)=O)=NC1=O (stereo partly drawn) [Example 15, (3′S,5R,S)-5-[N-Ethyl-N-(3′-amino-6′-guanidinohexanoyl)amino]-5,6-dihydro-2-ureido-4(1H)-pyrimidone Dihydrochloride]	–	100	–
CN(C(=O)CC(N)c1cccc(NC(=N)N)c1)C1CNC(NC(N)=O)=NC1=O (stereo not drawn) [Example 2, (3′RS,5RS)-5-{N-Methyl-N-[3′-amino-3′-(3-guanidylphenyl)propionyl]amino}-5,6-dihydro-2-ureido-4(1H)-pyrimidone Dihydrochloride]	6	50	IC50 [6]: > 10 mg/L; IC50 [7]: > 10 mg/L; IC50 [8]: > 10 mg/L
CN(C(=O)C[C@@H](N)CNC(=N)N)C1CNC(NC(N)=O)=NC1=O (stereo partly drawn) [TAN 1057 A,B, reference compound]	0.25 (≈ 0.764 µM)	0.1 (≈ 0.305 µM)	MIC ([3]; read-out: MIC of highly resistant S. aureus 133 bacteria): > 100 mg/L; MIC [3, 10]: 0.8 mg/L (≈ 2.44 µM); ED100 (therapeutic dose at which all infected animals survived) (S. aureus 133 [4]): 1 mg/kg; toxicity (in words) (J774.A1 cells): pronounced toxicity in the liver and cells of the immune system; MIC (S. aureus 133 [2]; S. aureus 133 before selection with TAN 1057 A,B, read-out: initial MIC): < 0.1 µg/mL; IC50 [7]: 7 mg/L (≈ 21.4 µM); LD50 [5]: 100 mg/kg
N=C(N)NCCC[C@H](N)CC(=O)NC1CNC(NC(N)=O)=NC1=O (stereo partly drawn) [Example 9, (3′R,5R,S)-5-[N-(3′-amino-6′-guanidinohexanoyl)amino]-5,6-dihydro-2-ureido-4(1H)-pyrimidone Dihydrochloride]	–	1.6	–
CCN(C(=O)C[C@@H](N)CCCNC(=N)N)C1CNC(NC(N)=O)=NC1=O (stereo partly drawn) (as salt: hydrochloride) [Example 15, (3′S,5R,S)-5-[N-Ethyl-N-(3′-amino-6′-guanidinohexanoyl)amino]-5,6-dihydro-2-ureido-4(1H)-pyrimidone Dihydrochloride]	–	–	melting point: 170 to 172 °C

Continued, in another order:

IC50 at 72 h [1] [mg/L]	MIC (S. aureus 133 [2]; [9]) [µg/mL]	Structure (SMILES)	further results
6	0.1	CN(C(=O)C[C@@H](N)CCCCN)C1CNC(NC(N)=O)=NC1=O (stereo partly drawn) [Example 5, (3′S,5R,S)-5-[N-Methyl-N-(3′,7′-diaminoheptanoyl)amino]-5,6-dihydro-2-ureido-4(1H)-pyrimidone Dihydrochloride]	–
3	0.2	CN(C(=O)C[C@@H](N)CCCCNC(=N)N)C1CNC(NC(N)=O)=NC1=O (stereo partly drawn) [Example 1, (3′S,5R,S)-5-[N-Methyl-N-(3′-amino-7′-guanidinoheptanoyl)amino]-5,6-dihydro-2-ureido-4(1H)-pyrimidone Dihydrochloride]	IC50 [6]: > 10 mg/L; IC50 [7]: > 10 mg/L; IC50 [8]: > 10 mg/L
5.5	0.8	CNC(=N)NCCC[C@H](N)CC(=O)N(C)C1CNC(NC(N)=O)=NC1=O (stereo partly drawn) [Example 6, (3′S,5R,S)-5-{N-Methyl-N-[3′-amino-6′-(N′-methylguanidino)hexanoyl]amino}-5,6-dihydro-2-ureido-4(1H)-pyrinidone Dihydrochloride]	–
–	6.3	CN(C(=O)C[C@H](N)CCCN)C1CNC(NC(N)=O)=NC1=O (stereo partly drawn) [Example 12, (3′R,5R,S)-5-[N-Methyl-N-(3′,6′-diaminohexanoyl)amino]-5,6-dihydro-2-ureido-4(1H)-pyrimidone Dihydrochloride]	–
1.8	1.6	CN(C(=O)C[C@@H](N)CCN)C1CNC(NC(N)=O)=NC1=O (stereo partly drawn) [Example 8, (3′S,5R,S)-5-[N-Methyl-N-(3′,5′-diaminopentanoyl)amino]-5,6-dihydro-2-ureido-4(1H)-pyrimidone Dihydrochloride]	–
–	3.2	CCN(C(=O)C[C@@H](N)CCCN)C1CNC(NC(N)=O)=NC1=O (stereo partly drawn) [Example 10, (3′S,5R,S)-5-[N-Ethyl-N-(3′,6′-diaminohexanoyl)amino]-5,6-dihydro-2-ureido-4(1H)-pyrimidone Dihydrochloride]	–
–	6.3	CN(C(=O)CC(N)CCCCCN)C1CNC(NC(N)=O)=NC1=O [Example 17, (3′R,S,5R,S)-5-[N-Methyl-N-(3′,8′-diaminooctanoyl)amino]-5,6-dihydro-2-ureido-4(1H)-pyrimidone Dihydrochloride]	–
–	12.5	CN(C(=O)CC(N)CCC#N)C1CNC(NC(N)=O)=NC1=O.Cl [Example 18, (3′R,S,5R,S)-5-[N-Methyl-N-(3′-amino-5′-cyanopentanoyl)amino]-5,6-dihydro-2-ureido-4(1H)-pyrimidone Hydrochloride]	–
–	12.5	CN(C(=O)C[C@@H](N)CCC(N)=O)C1CNC(NC(N)=O)=NC1=O.Cl (stereo partly drawn) [Example 13, (3′R,5R,S)-5-[N-Methyl-N-(3′-amino-5′-carbamoyl-pentanoyl)amino]-5,6-dihydro-2-ureido-4(1H)-pyrimidone Dihydrochloride]	–
50	0.8	CCNCCC[C@H](N)CC(=O)N(C)C1CNC(NC(N)=O)=NC1=O (stereo partly drawn) [Example 7, (3′S,5R,S)-5-[N-Methyl-N-(3′-amino-6′-ethylaminohexanoyl)amino]-5,6-dihydro-2-ureido-4(1H)-pyrimidone Dihydrochloride]	–
–	3.2	CN(C(=O)CC[C@@H](N)CCCN)C1CNC(NC(N)=O)=NC1=O (stereo partly drawn) [Example 11, (4′S,5R,S)-5-[N-Methyl-N-(4′,7′-diaminoheptanoyl)amino]-5,6-dihydro-2-ureido-4(1H)-pyrimidone Dihydrochloride]	–

Reference: patent publication US6617332B1, “Tan-1057 derivatives” (Bayer Aktiengesellschaft, priority 1998, dated 2003)
